Results reported in US20200093744A1, “POLYMER CONSTRUCTS FOR CONTROLLED RELEASE OF GUEST AGENTS” (CASE WESTERN RESERVE UNIVERSITY, priority 2017, published 2020).

Assay: Thermal stability by TGA and comparative UV-Vis before and after heating up to 220° C.
Assay type: physicochemical
Experimental: Thermal transitions of polymer films were obtained using DSC (TA instruments Q100) at a heating rate of 10° C./min over a temperature range of about −80 to 200° C. The thermal properties of the polymers were measured by thermogravimetric analysis (TGA) on a TA Instruments, […]. The samples were heated up to 220° C. at a heating rate of 15° C./min under a dry nitrogen atmosphere (flow rate: 70 mL/min) on a TA Instruments 2950 thermogravimetric analyzer. X-ray diffraction (XRD) measurements were conducted via a Rigaku diffractometer in transmission mode with Cu Kα X-rays (λ=0.154 nm) operating at 40 kV and 40 mA. The experiment was carried out at 25° C. with a scan speed of 0.5°/min over a scan range of 5° to 40°.
The thermal property of the polymer-guest system was also investigated by the TGA to ensure system stability during the high temperature layer multiplying coextrusion process. […] A viscosity-match temperature of layer multiplying co-extrusion was determined by a melt flow indexer (MFI) at a low shear rate as shown in FIG. 5. A 60/40 feed ratio of PEO100K/PEO200K in layer B was obtained with the processing temperature of 200° C. selected based on material rheological compatibility. The ABAB-type layer multiplication process was conducted accordingly with PE as the protective surface layer and the technique described herein used to form the multilayer film.

- conjugation structure of MO after heating (comparative UV-Vis): remained intact
Compound: CN(C)c1ccc(N=Nc2ccc(S(=O)(=O)[O-])cc2)cc1.[Na+] [MO, methyl orange]
